{"source": "patent US11939301B2", "about": "“5HT1F receptor agonists and mitochondrial biogenesis” (MUSC FOUNDATION FOR RESEARCH DEVELOPMENT, priority 2016, dated 2024)", "key": {"[1]": {"test_system": "RPTC", "conditions": "cited from earlier work; for maximal mitochondrial respiration / mitochondrial proteins (ATP synthase β, Cox1, NDUFB8): RPTC, 1-100 nM"}, "[2]": {"test_system": "renal proximal tubule cells", "assay": "In-vitro mitochondrial biogenesis dose response (FCCP-uncoupled OCR, Seahorse)", "assay_type": "cell-based", "conditions": "Oryctolagus cuniculus; rabbit renal proximal tubule cells, 24 h incubation, uncoupled OCR normalized to vehicle, Hill fit, N=4-6", "description": "OCRs were measured using a Seahorse Bioscience analyzer (North Billerica, Mass.) before (basal) and after addition of […] FCCP, an ionophore that uncouples electron transport from ATP generation. The selective 5-HT1F receptor agonists LY334370 (4-fluoro-N-[3-(1-methyl-4-piperidinyl)-1H-indol-5-yl]benzamide) and LY344864 (N-[(3R)-3-(dimethylamino)-2,3,4,9-tetrahydro-1H-carbazol-6-yl]-4-fluorobenzamide), and the nonselective 5-HT receptor agonist a-methyl 5-HT were purchased from Tocris (Ellisville, Mo.).\nIn-vitro mitochondrial biogenesis dose responses (reported as EC50 values) were determined from a modification of the assay described in Example 21. […] Compounds were incubated at different doses with renal cells for 24 h after which their basal respiration and elevated FCCP-induced uncoupled oxygen consumption rates (OCRs) were measured using a Seahorse Bioscience analyzer (Beeson et al., 2010). Uncoupled OCRs were normalized to vehicle control OCRs and the rates that decrease at high concentrations of drug were eliminated. The remaining dose-dependent responses were fit to a standard Hill equation using non-linear regression to obtain the EC50 values for replicates of N=4-6 where N is the number of individual rabbit renal cell isolations tested for each compound."}, "[3]": {"test_system": "podocytes (1-1P4G5 podocyte clone)", "assay": "Podocyte mitochondrial biogenesis (FCCP-uncoupled oxygen consumption rate)", "assay_type": "cell-based", "conditions": "Mus musculus; differentiated podocytes, FCCP 1 μM uncoupled rate normalized to vehicle, Hill fit", "description": "Fully differentiated podocytes were assayed using increased mitochondrial reserve capacity (measured as FCCP-uncoupled oxygen consumption rate) as a measure of mitochondrial biogenesis.\nFor these studies the 1-1P4G5 podocyte clone developed in the Kopp lab at the NIH were used. (25) These cells expressed a SV40-driven temperature sensitive T antigen that enabled the cells to proliferate in an undifferentiated state at the permissive temperature of 33° C. and then after 5 days of culture at 37° C. the cells are fully differentiated as mature podocytes. The differentiated cells were maintained in Advanced RPMI 1640 with 10% fetal calf serum and then plated at 1.5 million cells/96-well Seahorse plate for 48 h prior to treatment with test compound, vehicle control (VC) or validated 5-HT1F agonists. The plates were then transferred to a Seahorse XF96 Instrument during which basal and FCCP-uncoupled rates were measured (the [FCCP]=1 μM). Drugs were treated at a range of 1 nM, 10 nM, 100 nM, 500 nM, and 1 μM and the uncoupled rates were normalized to vehicle control, <0.2% DMSO in media. The doses responses were fit to a Hill function and the EC50 values were calculated from the non-linear regression."}, "[4]": {"test_system": "murine model of glomerular disease", "assay": "Nephrotoxic serum (NTS) induced chronic kidney disease model, albuminuria", "assay_type": "in vivo, mouse", "conditions": "C57/BL mice, 2 mg/kg once per day, FIG. 1", "source_text": "Renal dysfunction was modeled in mice using the nephrotoxic serum (NTS) induced model. The classical Adriamycin model for glomerular studies relies critically on dosing profiles, has resistance in some murine species, off-target effects in others, and required days (10 days) instead of hours for observable albuminuria (marker for renal compromise, determined by urine collection) compared to the NTS counterpart. (Mallipattu, S. K.; He, J. C. Am. J. Physiol. Renal Physiol. 2016, 311, F46-F51; Pippin, J. W.; Brinkkoetter, P. T.; Cormack-Aboud, F. C.; Durvasula, R. V.; Hauser, P. V.; Kowalewska, J.; Krofft, R. D.; Logar, C. M.; Marshall, C. B.; Ohse, T.; Shankland, S. J. Am. J. Physiol. Renal Physiol. 2009, 296, F213-F229). Conversely, the NTS model is quick onset (4 h) and has wide species reproducibility.\nIn this experiment, induction of the nephrotoxic serum (NTS) model ([…] injection) for glomerular decline was performed using C57/BL mice (15 mice total).\nUrine albumin/creatinine ratios were measured in control (NTS+vehicle) and drug treated mice (NTS+drug (example 6) for pre-injection, day 2, day 6, day 12 and day 14. Drug was administered once per day at 2 mg/kg. Thus, it is expected that the compounds of the invention are useful to treat chronic kidney disease."}, "[5]": {"test_system": "murine renal cortex, heart, and liver", "conditions": "cited from earlier work"}, "[6]": {"test_system": "ischemia/reperfusion-induced AKI", "conditions": "following ischemia/reperfusion-induced AKI; cited from earlier work"}}}
{"compound": "COc1cc(CC(C)N)c(OC)cc1I.Cl", "note": "(stereo not shown) [DOT, 1-(2,5-dimethoxy-4-iodophenyl)-2-aminopropane hydrochloride]", "values": [{"measurement": "recovery of mitochondrial function", "setting": "[1]; renal proximal tubular cells, following oxidant injury", "result": "accelerated the recovery of mitochondrial function"}, {"measurement": "induction of MB", "setting": "[1]; renal proximal tubular cells", "result": "potent inducer of MB"}]}
{"compound": "COCCNC(=O)c1cnc2ccc(OC)cn2c1=O", "note": "[Example 1, 7-methoxy-N-(2-methoxyethyl)-4-oxo-4H-pyrido[1,2-a]pyrimidine-3-carboxamide]", "values": [{"measurement": "EC50", "setting": "[2]", "result": 20, "unit": "pM"}]}
{"compound": "COCCNC(=O)c1cnc2ccc(NCCOC)cn2c1=O", "note": "[Example 2, N-(2-methoxyethyl)-7-((2-methoxyethyl)amino)-4-oxo-4H-pyrido[1,2-a]pyrimidine-3-carboxamide]", "values": [{"measurement": "EC50", "setting": "[2]", "result": 20, "unit": "pM"}]}
{"compound": "COCCNC(=O)c1cnc(N)n(CCOC)c1=O", "note": "[Example 3, 2-amino-N,1-bis(2-methoxyethyl)-6-oxo-1,6-dihydropyrimidine-5-carboxamide]", "values": [{"measurement": "EC50", "setting": "[2]", "result": 20000, "unit": "pM"}]}
{"compound": "COCCNC(=O)c1cnc2c(OC)cc(OC)cc2c1O", "note": "[Example 4, 4-hydroxy-6,8-dimethoxy-N-(2-methoxyethyl)quinoline-3-carboxamide]", "values": [{"measurement": "EC50", "setting": "[2]", "result": 2000, "unit": "pM"}, {"measurement": "EC50", "setting": "[3]", "result": 20000, "unit": "pM"}]}
{"compound": "COc1cc(OC)c2ncc(C(=O)N3CCN(C)CC3)c(O)c2c1", "note": "[Example 5, (4-hydroxy-6,8-dimethoxyquinolin-3-yl)(4-methylpiperazin-1-yl)methanone]", "values": [{"measurement": "EC50", "setting": "[2]", "result": 1000, "unit": "pM"}, {"measurement": "EC50", "setting": "[3]", "result": 100000, "unit": "pM"}]}
{"compound": "CN1CCN(C(=O)c2cccc(NC(=O)c3c(F)cc(F)cc3F)n2)CC1", "note": "[Example 6, 2,4,6-trifluoro-N-(6-(4-methylpiperazine-1-carbonyl)pyridin-2-yl)benzamide]", "values": [{"measurement": "EC50", "setting": "[2]", "result": 2000, "unit": "pM"}, {"measurement": "EC50", "setting": "[3]", "result": 100000, "unit": "pM"}, {"measurement": "albuminuria (urine albumin/creatinine ratio)", "setting": "[4]", "result": "attenuated albuminuria"}]}
{"compound": "CN1CCCN(C(=O)c2cccc(NC(=O)c3c(F)cc(F)cc3F)n2)CC1", "note": "[Example 7, 2,4,6-trifluoro-N-(6-(4-methyl-1,4-diazepane-1-carbonyl)pyridin-2-yl)benzamide]", "values": [{"measurement": "EC50", "setting": "[2]", "result": 200, "unit": "pM"}]}
{"compound": "Cc1ccc(S(=O)(=O)Nc2cccc(C(=O)N3CCN(C)CC3)n2)cc1", "note": "[Example 8, 4-methyl-N-(6-(4-methylpiperazine-1-carbonyl)pyridin-2-yl)benzenesulfonamide]", "values": [{"measurement": "EC50", "setting": "[2]", "result": 200, "unit": "pM"}]}
{"compound": "CN1CCN(C(=O)c2cccc(NC(=O)N(C)C)n2)CC1", "note": "[Example 9, 1,1-dimethyl-3-(6-(4-methylpiperazine-1-carbonyl)pyridin-2-yl)urea]", "values": [{"measurement": "EC50", "setting": "[2]", "result": 200, "unit": "pM"}]}
{"compound": "CN1CCN(C(=O)c2cccc(Nc3nc4ccccc4[nH]3)n2)CC1", "note": "[Example 10, (6-((1H-benzo[d]imidazol-2-yl)amino)pyridin-2-yl)(4-methylpiperazin-1-yl)methanone]", "values": [{"measurement": "EC50", "setting": "[2]", "result": 200, "unit": "pM"}]}
{"compound": "CN1CCN(C(=O)c2cccc(NC(=O)c3ccccc3)n2)CC1", "note": "[Example 11, N-(6-(4-methylpiperazine-1-carbonyl)pyridin-2-yl)benzamide]", "values": [{"measurement": "EC50", "setting": "[2]", "result": 2000, "unit": "pM"}]}
{"compound": "COCC(=O)N1CCc2ccc(Nc3nc4ccccc4o3)cc21", "note": "[Example 12, 1-(6-(benzo[d]oxazol-2-ylamino)indolin-1-yl)-2-methoxyethan-1-one]", "values": [{"measurement": "EC50", "setting": "[2]", "result": 2000, "unit": "pM"}]}
{"compound": "COCC(=O)N1CCc2ccc(NC(=O)c3ccc(F)cc3F)cc21", "note": "[Example 13, 2,4-difluoro-N-(1-(2-methoxyacetyl)indolin-6-yl)benzamide]", "values": [{"measurement": "EC50", "setting": "[2]", "result": 20, "unit": "pM"}]}
{"compound": "COCC(=O)N1CCc2ccc(Nc3nc4ccccc4[nH]3)cc21", "note": "[Example 14, 1-(6-((1H-benzo[d]imidazol-2-yl)amino)indolin-1-yl)-2-methoxyethan-1-one]", "values": [{"measurement": "EC50", "setting": "[2]", "result": 20, "unit": "pM"}]}
{"compound": "COCC(=O)N1CCc2ccc(NC(=O)c3ccc(F)c(F)c3)cc21", "note": "[Example 15, 3,4-difluoro-N-(1-(2-methoxyacetyl)indolin-6-yl)benzamide]", "values": [{"measurement": "EC50", "setting": "[2]", "result": 200, "unit": "pM"}]}
{"compound": "COCC(=O)N1CCc2ccc(N(C)C(=O)c3c(F)cc(F)cc3F)cc21", "note": "[Example 16, 2,4,6-trifluoro-N-(1-(2-methoxyacetyl)indolin-6-yl)-N-methylbenzamide]", "values": [{"measurement": "EC50", "setting": "[2]", "result": 2, "unit": "pM"}]}
{"compound": "COCC(=O)N1CCc2ccc(NC(=O)c3cc(F)cc(F)c3)cc21", "note": "[Example 17, 3,5-difluoro-N-(1-(2-methoxyacetyl)indolin-6-yl)benzamide]", "values": [{"measurement": "EC50", "setting": "[2]", "result": 20, "unit": "pM"}]}
{"compound": "COCC(=O)N1CCc2ccc(N(S(=O)(=O)c3ccccc3)S(=O)(=O)c3ccccc3)cc21", "note": "[Example 19, N-(1-(2-methoxyacetyl)indolin-6-yl)-N-(phenylsulfonyl)benzenesulfonamide]", "values": [{"measurement": "EC50", "setting": "[2]", "result": 2000, "unit": "pM"}, {"measurement": "EC50", "setting": "[3]", "result": 20000, "unit": "pM"}]}
{"compound": "COCC(=O)N1CCc2ccc(NC(=O)c3cccc(Br)c3)cc21", "note": "[Example 20, 3-bromo-N-(1-(2-methoxyacetyl)indolin-6-yl)benzamide]", "values": [{"measurement": "EC50", "setting": "[2]", "result": 20, "unit": "pM"}]}
{"compound": "CN1CCC(C(=O)c2cccc(NC(=O)c3c(F)cc(F)cc3F)n2)CC1", "note": "[Example 24, 2,4,6-trifluoro-N-(6-(1-methylpiperidine-4-carbonyl)pyridin-2-yl)benzamide, reference compound]", "values": [{"measurement": "EC50", "setting": "[2]", "result": 600, "unit": "pM"}, {"measurement": "EC50", "setting": "[3]", "result": 20000, "unit": "pM"}]}
{"compound": "CN(C)CC(=O)N1CCc2ccc(NS(=O)(=O)c3ccccc3)cc21", "note": "[Example 25, N-(1-(dimethylglycyl)indolin-6-yl)benzenesulfonamide]", "values": [{"measurement": "EC50", "setting": "[3]", "result": 200, "unit": "pM"}]}
{"compound": "CCN(CC)CC(=O)N1CCc2ccc(NC(=O)c3ccccc3)cc21", "note": "[Example 26, N-(1-(diethylglycyl)indolin-6-yl)benzamide]", "values": [{"measurement": "EC50", "setting": "[3]", "result": 20000, "unit": "pM"}]}
{"compound": "O=C(Nc1ccc2c(c1)N(C(=O)CN1CCOCC1)CC2)c1ccccc1", "note": "[Example 27, N-(1-(2-morpholinoacetyl)indolin-6-yl)benzamide]", "values": [{"measurement": "EC50", "setting": "[3]", "result": 20000, "unit": "pM"}]}
{"compound": "CN1CCC(c2c[nH]c3ccc(NC(=O)c4ccc(F)cc4)cc23)CC1", "note": "[LY334370, 4-fluoro-N-[3-(1-methyl-4-piperidinyl)-1H-indol-5-yl]benzamide]", "values": [{"measurement": "maximal mitochondrial respiration", "setting": "[1]", "result": "increased"}, {"measurement": "mitochondrial proteins (ATP synthase β, Cox1, NDUFB8)", "setting": "[1]", "result": "increased"}]}
{"compound": "CN(C)[C@@H]1CCc2[nH]c3ccc(NC(=O)c4ccc(F)cc4)cc3c2C1", "note": "[LY344864, N-[(3R)-3-(dimethylamino)-2,3,4,9-tetrahydro-1H-carbazol-6-yl]-4-fluorobenzamide]", "values": [{"measurement": "maximal mitochondrial respiration", "setting": "[1]", "result": "increased"}, {"measurement": "mitochondrial proteins (ATP synthase β, Cox1, NDUFB8)", "setting": "[1]", "result": "increased"}, {"measurement": "PGC-1α, Cox1 and NDUFB8 transcript levels and mtDNA copy number", "setting": "[5]", "result": "increased"}, {"measurement": "recovery of renal function (BUN, KIM-1, mtDNA copy number)", "setting": "[6]", "result": "accelerated recovery of renal function"}]}
